Measurements reported in patent US12508266B2 (priority 2010, dated 2025).
≈ marks a conversion by molar mass, not a printed value.

Test system: A/NJ/15/2007 (H1N1-H274Y)
Assay type: cell-based, influenza

**Q.** With Nc1ncnc2c([C@@H]3N[C@H](CO)[C@@H](O)[C@H]3O)c[nH]c12 [Compound 1, (2S,3S,4R,5R)-2-(4-Amino-5H-pyrrolo[3,2-d]pyrimidin-7-yl)-5-(hydroxymethyl) pyrrolidine-3,4-diol] as the compound, how does the EC50 read?
**A.** Its EC50 is 1.39 µg/mL (≈ 5.24 µM).
